From patent publication US9777048B2, “Use of PEDF-derived polypeptides for treating osteoarthritis” (MacKay Memorial Hospital, priority 2012, dated 2017)

What was measured:
[1] = system: chondrocytes in damaged articular cartilage (MIA-induced osteoarthritis); experiment: MIA-induced knee osteoarthritis in rats: chondrocyte proliferation and cartilage regeneration in vivo; design: species or system Sprague-Dawley rats; conditions: for BrdU/Aggrecan Labeling Index (%): rat MIA knee, 0.2 mM peptide in 25 μl of 5% HA (HA group: 5% HA alone), intra-articular on day 8, 12, 16, 20 post-MIA, mean±SEM, *P<0.0001 vs vehicle/HA; for H&E histology of knee joint (morphological changes associated with osteoarthritis): specimens day-18 and day-25 post-MIA injection, FIG. 1; for Chondrocytes in cartilage layers, microscopic images: knee specimens 25 days after MIA injection, FIG. 2
Procedure: Animal models of osteoarthritis were established by intra-articular injection of MIA. Specifically, adult 10-wk-old male Sprague-Dawley rats (initial body wt=312±11 g) were anesthetized with an intraperitoneal injection of xylazine (10 mg/kg), followed by a single intra-articular injection of MIA (1 mg of MIA in 25 μl of sterile saline) in the right knee. In particular, the MIA solution was injected through the patellar ligament by using a 27G needle with the leg flexed at a 90° angle at the knee.
For the detection of in vivo cell proliferation, BrdU was reconstituted in DMSO as stock (80 mM). 150 μl of BrdU mixed with 350 μl of PBS was intraperitoneally injected into rat at 16 hours prior to euthanasia. DNA synthesis was then assessed by BrdU labeling with anti-BrdU antibodies according to procedures set forth below.
The knee joints were dissected and the surrounding soft tissue was removed. Specimens were fixed in 4% paraformaldehyde and then decalcified with Shandon TBD-2 decalcifier (Thermo Scientific; Logan, Utah). The joints were then sectioned mid-sagittally and embedded in paraffin blocks. Sections (5 μm in thickness) were longitudinally cut.
Before use, fixed samples were de-pa raffinized in xylene and rehydrated in a graded series of ethanol. The sample were then stained with hematoxylin and eosin (H&E) or used for immunohistochemical examination. 20 sections per knee were carefully prepared so as to include the most severely degenerated area.
Paraffin-embedded joint specimens were deparaffinized in xylene and rehydrated in a graded series of ethanol. Deparaffinized specimens were then exposed to 1 N HCl at room temperature for 1 hour for subsequent immunofluorescence study.
(§1) For immunofluorescence study, the specimens were blocked with 10% goat serum and 5% BSA for 1 hour. Immunostaining was done using primary antibodies against aggrecan (1:100 dilution), type II collagen (1:100 dilution), and BrdU (1:100 dilution) at 37° C. for 2 hours, followed by incubation with the appropriate rhodamine- or FITC-conjugated donkey IgG for 1 hour at room temperature. Nuclei were located by counterstaining with Hoechst 33258 for 7 min. Images were captured using a Zeiss epifluorescence microscope with a CCD camera. Blinded quantification was performed in triplicate by manually counting cells from 20 randomly-selected fields in each section.
Knee osteoarthritis is a common chronic degenerative disease characterized by loss of articular cartilage. Injection of mono-iodoacetate (MIA), an inhibitor of glycolysis, into the femorotibial joint space of rodents has been reported to induce loss of articular cartilage similar to that noted in human OA. It has been established that extensive chondrocyte degeneration/necrosis usually arises at 7 days after MIA injection. Therefore, PEDF peptide treatment was started on day 8 post-MIA injection, so as to elucidate whether the present PEDF peptides promote cartilage regeneration.
Rats were randomly assigned to 6 experimental groups (n=6, each group) and treated as follows. In the HA group, rats received 25 μl of 5% hyaluronic acid injection. In the Vehicle/HA group, rats were treated with DMSO vehicle re-dissolved in 25 μl of 5% HA. As to the 29-mer/HA, 24-mer/HA, 20-mer/HA, and 18-mer/HA groups, rats received 0.2 mM PEDF peptide (29-mer, 24-mer, 20-mer or 18-mer) re-dissolved in 25 μl of 5% HA. Treatments were applied by way of a single intra-articular injection once on day-8, 12, 16 and 20, respectively, post-MIA injection.
Quantitative analysis was performed as described above from 3 sections per knee joint specimen, and 6 rats at each group. The BrdU/aggrecan labeling index (%) was computed as the number of BrdU- and aggrecan-double positive cells divided by the total number of aggrecan-positive cells. Results are summarized in Table 1; *P<0.0001 versus the vehicle/HA group.

osteoarthritis = experiment: Treating osteoarthritis in a subject (experiments of prior application Ser. No. 13/428,996 and present application); format: in vivo; conditions: stated without data; based on prior and present application
Text: Prior experiments conducted by the present inventors, such as those disclosed in the co-pending U.S. application Ser. No. 13/428,996 (the entirety of which is incorporated herein by reference) and experiments provided hereinbelow, reveal that several short, synthetic PEDF peptides derived from the 39-mer, are capable of treating osteoarthritis in a subject.

[2] = system: primary chondrocytes from rat articular cartilage; experiment: Primary articular chondrocyte proliferation in vitro; format: cell-based, Sprague-Dawley rats; conditions: 50 nM peptide; for Aggrecan Labeling Index (%): rat articular chondrocyte monolayer culture, 12 days, mean±SEM, *P<0.01 vs untreated
Procedure: Articular cartilage was harvested from femoral condyles (the anterior, posterior and lateral areas) of adult 8-wk-old male Sprague-Dawley rats. Care was taken to avoid contamination with synovium and to disruption of the bony structures during the sampling process. Dissected tissue was cut into small (about 0.5 mm^3) pieces and digested sequentially by pronase (70 U/ml, 1 hour at 37° C.) and collagenase (300 U/ml, 3 hours at 37° C.). After digestion, collagenase was removed by a single wash in sterile phosphate-buffered saline (PBS), followed by two further washes in DMEM supplemented with 2% FBS. For primary culture, 6000 trypan blue-negative cells per well were plated on 10 μg/ml fibronectin-coated coverslips in a 6-well plate in 10% FBS-DMEM supplemented with 1% penicillin/streptomycin. The next day, the medium was changed to the standard expansion medium (consisting of 10% FBS-DMEM, 0.1 mM ascorbic acid, 0.5 mg/ml L-glucose, 100 mM HEPES, 1 mM sodium pyruvate, 2 mM L-glutamine and antibiotics) supplemented with or without 50 nM PEDF peptide). The medium was replaced every 3 days for 12 days.
as §1
Primary chondrocytes were isolated from rat articular cartilage and cultivated in the presence or absence of the present PEDF peptides to elucidate the stimulating effect of the present PEDF peptides on chondrocyte proliferation.
By contrast, in the vehicle group, the colonies are much smaller in the absence of PEDF peptides. The chondrocyte identity of cells within the colony was confirmed by aggrecan immunostaining (FIG. 4A, inserts). The level of aggrecan-positive cells in the monolayer culture (FIG. 4B) were quantified from 20 randomly selected fields, and the aggrecan labeling index (%) was computed as the number of aggrecan-labeled cells divided by the total number of cells (nucleus labeling by Hoechst 33258). Results are summarized in Table 2; *P<0.01 versus untreated cells.

[3] = system: mesenchymal stem cells (MSCs); experiment: Chondrogenic differentiation of MSCs: aggrecan immunostaining; format: cell-based, Sprague-Dawley rats; conditions: rat MSCs in chondrogenic medium plus 50 nM peptide, 1 week; mean±SEM; *P<0.0001 vs vehicle
Procedure: Adult 8-wk-old male Sprague-Dawley rats were anesthetized with an intraperitoneal injection of xylazine (10 mg/kg). Femurs were aseptically harvested, washed in a mixture of PBS and antibiotics for 5 minutes, dissected of all soft tissue, transected at their epiphysis, and their marrow cavity was rinsed repeatedly with a mixture of heparin and DMEM. The harvested cells were centrifuged at 1000×g for 10 minutes. Cell pellets were resuspended with DMEM, and then the cell suspension was transferred to a 15-ml centrifuge tube containing 5 ml of Percoll (1.073 g/ml). After centrifugation at 1500×g for 30 minutes, the mononuclear cells in the middle layer were separated, washed three times with PBS and then resuspended in low-glucose DMEM with 10% heat-inactivated FBS and 1% penicillin/streptomycin. Cells were then incubated with 95% air and 5% CO2 at 37° C.; the medium was replaced every 4 days. Unattached cells were discarded and adherent cells were retained. The primary mesenchymal stem cells (MSCs) grew to approximately 80%-90% confluence after culture for 1 week.
For inducing the chondrogenic differentiation of MSCs, 5×10^5 expanded MSCs were exposed to chondrogenic medium (high-glucose DMEM with 100 nM dexamethasone, 0.17 mM ascorbic acid-2 phosphate, 10 μg/ml of insulin, 5 μg/ml of transferrin, 5 ng/ml selenium, 1 mM sodium pyruvate, 2 mM L-glutamine, and 2% FBS) supplemented with 10 ng/ml TGF-β2 (R&D Systems; Minneapolis, Minn.). […]
For immunofluorescence study, the specimens were blocked with 10% goat serum and 5% BSA for 1 hour. […] Blinded quantification was performed in triplicate by manually counting cells from 20 randomly-selected fields in each section.
Immunostaining for aggrecan and type II collagen was also performed to investigate the pro-differentiation activity of the present PEDF peptides. The level of aggrecan-positive cells were quantified from 20 randomly selected fields, and the aggrecan labeling index (%) was computed as the number of aggrecan-labeled cells divided by the total number of cells (nucleus labeling by Hoechst 33258). […]

For “EQRTESIIHRALYYDLIS (optionally in 5% hyaluronic acid) [18-mer, peptide lacking the SLGA residues; /HA = re-dissolved in 5% hyaluronic acid, reference compound]”, the “BrdU/Aggrecan Labeling Index (%)” value [1] was “does not elicit such promoting effect”, the “BrdU/Aggrecan Labeling Index (%)” value ([1]; listed as 18-mer/HA) was 0.67 ± 0.33% and the “H&E histology of knee joint (morphological changes associated with osteoarthritis)” value [1] was “morphological changes associated with osteoarthritis (including the reduction of cartilage, the superficial fibrosis of cartilage and subchondral bone collapse) is noted”. The “Effectiveness in treating osteoarthritis in a subject” value (shortened to “Effectiveness”) (osteoarthritis) was “fails to elicit any protection against osteoarthritis” and the “Aggrecan Labeling Index (%)” value [2] was 31.8 ± 2.6%.

For “SLGAEQRTESIIHRALYYDL (optionally in 5% hyaluronic acid) [20-mer, residues 93-112 of human PEDF; /HA = re-dissolved in 5% hyaluronic acid]”, the “Aggrecan-positive cells among all cells (aggrecan/Hoechst 33258 dual staining)” value ([1]; FIG. 3 middle panels) was “over 95%”, the “Chondrocytes in cartilage layers, microscopic images” value [1] was “occupation of large numbers of newly generated chondrocyte throughout the cartilage” and the “BrdU/Aggrecan Labeling Index (%)” value [1] was 17.5 ± 2.7* %. The “H&E histology of knee joint (morphological changes associated with osteoarthritis)” value [1] was “the cartilage surface is smoother and the cartilage and subchondral bone are relatively integral”, the “Aggrecan-positive signals in cartilage (immunostaining)” value ([1]; superficial, transitional and deep zone, vs vehicle-treated knee, FIG. 3 left) was “heavily accumulated” and the “Numbers of BrdU-positive cells” value ([1]; vs vehicle/HA group, FIG. 3 right panels) was “increased significantly”. For the same substance, the “Aggrecan Labeling Index (%)” value [3] was 78.7 ± 3.8* %, the “Chondrocyte growth and colony formation” value ([2]; vs vehicle group, FIG. 4A) was “chondrocytes grew faster and aggregated into huge three dimensional colonies” and the “Aggrecan Labeling Index (%)” value [2] was 50.1 ± 3.6* %.

“hyaluronic acid [HA, reference compound]” was tested, and the “BrdU/Aggrecan Labeling Index (%)” value [1] was 0.71 ± 0.28%.

“SLGAEQRTESIIHRALYYDLISSPDIHGT (optionally in 5% hyaluronic acid) [29-mer, residues 93-121 of human PEDF; /HA = re-dissolved in 5% hyaluronic acid]” was tested, and the “Chondrocytes in cartilage layers, microscopic images” value [1] was “occupation of large numbers of newly generated chondrocyte throughout the cartilage”, the “BrdU/Aggrecan Labeling Index (%)” value [1] was 15.0 ± 2.38* % and the “Aggrecan Labeling Index (%)” value [3] was 76.8 ± 5.0* %. The “Aggrecan Labeling Index (%)” value [2] was 52.2 ± 5.2* %.

With “EQRTESIIHRALYYDLISSPDIHGT [25-mer, peptide lacking the SLGA residues]” the “Effectiveness” value (osteoarthritis) was “ineffective”.

For “ALSALSLGAEQRTESIIHRALYYDLISSPDIHGT [34-mer, corresponds to residues 88-121 of human PEDF]”, the “Effectiveness” value (osteoarthritis) was “effective”.

“SLGAEQRTESIIHRALYYDLISSP (optionally in 5% hyaluronic acid) [24-mer, residues 93-116 of human PEDF; /HA = re-dissolved in 5% hyaluronic acid]” was tested, and the “BrdU/Aggrecan Labeling Index (%)” value [1] was 16.0 ± 2.03* %, the “Aggrecan Labeling Index (%)” value [3] was 78.8 ± 4.3* % and the “Aggrecan Labeling Index (%)” value [2] was 50.0 ± 2.9* %.
